Experimental data taken from patent US7867979B2, “Drug composition for treating 2 type diabetes and diabetic chronicity complications” (Hainan Deze Drug Research Co., Ltd., priority 2006, dated 2011).

Tests used:
Type in all cases: in vivo, Goto-Kakizaki rats (GK)
diabetic GK rats = test: Blood glucose and lipid in GK rats; conditions: oral daily 12 weeks; for GLU / Lipid TC / Lipid TG: GK rats, high fat diet
Description: The GK (Goto-Kakizaki) rat is the spontaneous model of diabetes, the pathogenesis of GK rat is very similar to the pathogenesis of type 2 diabetes. After diabetes attack, hyperglycemia and insulin secretion weakened emerge rapidly, the latter diseases may be complicated by retinopathy, micro-vascular disease, neuropathy, nephropathy in GK rat. The GK rats have been widely used in type 2 diabetes study, so we choose GK rat as the animal model of the following experiment. […] Then they can be mixed or diluted in accordance with the dose and the ratio. 1.3 Goto-Kakizaki rats (GK) (4 months age, ♀♂) and Wistar rats (SPF level, ♀♂) were purchased from Shanghai SLAC laboratory animal Co., Ltd. In addition to the normal rats, the other rats were fed with high fat diet (20% protein and 3.5% cholesterol). After the rats was feeding adaptation for one week, The GK rats which the blood glucose level was more than 11.1 mmol/L were selected, and then divided into the following groups random: GK rats control group (n=10); mangiferin groups (10, 30, 200 mg/kg, each group 10 rats); berberine groups (10, 20, 150 mg/kg, each group 10 rats); composition group 1[[mangiferin (10 mg/kg)+berberine (10 mg/kg)], 10 rats]; composition group 2[[mangiferin (200 mg/kg)+berberine (150 mg/kg)], 10 rats]. Wistar rats are normal control group (10 rats). GK rats control group and Wistar rats group were given saline. The other groups were given test drugs. Test samples were administrated orally at the same time every day for 12 weeks. 3.1 Blood Glucose and lipid: The blood specimens were taken at the end of the test. Plasma glucose (GLU), triglycerides (TG), total cholesterol (TC) were determined by HITACHI7080 automatic biochemistry analyzer. […] The results have been calculated as mean±SD ( x±SD) and the comparisons of the data have been done by t-test. […] Mangiferin and berberine are prepared in accordance with the method of preparation of example 1 and 2. Then they can be mixed in accordance with the dose and the ratio such as table 3. 1.2 Animal: Goto-Kakizaki rats (GK) (4 months age, ♀♂) and Wistar rats (SPF level, ♀♂) were purchased from Shanghai SLAC laboratory animal Co., Ltd. In addition to the normal rats, the other rats were fed with high fat diet (20% protein and 3.5% cholesterol). After the rats was feeding adaptation for one week, GK rats that the blood glucose level of the GK rats was more than 11.1 mmol/L were selected, and then random divided into the following groups as follows (Table 3): There are ten rats in every group. GK rats control group and wistar rats group were given saline. The other groups were given test drugs. Test samples were administrated orally at the same time every day for 12 weeks. The measurements are as same as the above experiment.

Propyl dialdehyde (MDA) = Propyl dialdehyde (MDA) in kidney tissue homogenate of GK rats; conditions: oral daily 12 weeks
Description: (§1) GK rats control group (n=10); mangiferin groups (10, 30, 200 mg/kg, each group 10 rats); berberine groups (10, 20, 150 mg/kg, each group 10 rats); composition group 1[[mangiferin (10 mg/kg)+berberine (10 mg/kg)], 10 rats]; composition group 2[[mangiferin (200 mg/kg)+berberine (150 mg/kg)], 10 rats]. Wistar rats are normal control group (10 rats). GK rats control group and Wistar rats group were given saline. The other groups were given test drugs. Test samples were administrated orally at the same time every day for 12 weeks. 3.3.1 Preparation of tissue homogenate: Rats were killed by femoral artery bloodletting after administration of the rats for 12-weeks. Kidney tissue of the rats were taken, the blood of kidney tissue were washed with cooling saline (4° C.), then the remnant water was absorbed with filter paper, the kidney tissue was weighed. Per gram kidney tissue was added into 10 ml saline, which was put in homogenized machine (10,000 r/min, 10 seconds, 3rd), 10% tissue homogenate was prepared, the tissue homogenate was centrifuged (4000 r/min) for 10 minutes to get supernatant, the supernatant was saved in −20° C. for determination. 3.3.2.2 Propyl dialdehyde (MDA): MDA is determined by TBA, the test box was bought from Nanjing Jiancheng Bioengineering Research Institute. […] The results have been calculated as mean±SD ( x±SD) and the comparisons of the data have been done by t-test. There are ten rats in every group. GK rats control group and wistar rats group were given saline. The other groups were given test drugs. Test samples were administrated orally at the same time every day for 12 weeks. The measurements are as same as the above experiment.

[1] = tested on: Superoxidedismutase (SOD); test: Superoxidedismutase (SOD) in kidney tissue homogenate of GK rats; conditions: oral daily 12 weeks
Description: as §1, with “[…] SOD” for “3.3.2.2 Propyl dialdehyde (MDA): MDA”, “Xanthine Oxidase calorimetric analysis,” for “TBA,”

[2] = 30 mg/kg mangiferin, 20 mg/kg berberine

## COc1ccc2cc3[n+](cc2c1OC)CCc1cc2c(cc1-3)OCO2 [Berberine]
Diabetic GK rats; 10 mg/kg
  Improvement of GLU, TC, TG, AR, MDA, SOD in diabetic GK rats: do not significantly improve
  GLU: 21.24 ± 3.13 mmol/L
  Lipid TC: 4.53 ± 1.28 mmol/L
  Lipid TG: 3.49 ± 0.68 mmol/L
Diabetic GK rats; [2]
  Improvement of GLU, TC, TG, AR, MDA, SOD in diabetic GK rats: improves
Diabetic GK rats; 20 mg/kg
  GLU: 12.29 ± 2.76 mmol/L
  Lipid TC: 3.27 ± 0.24 mmol/L
  Lipid TG: 2.79 ± 0.24 mmol/L
Diabetic GK rats; 150 mg/kg
  GLU: 9.11 ± 2.08 mmol/L
  Lipid TC: 3.01 ± 0.28 mmol/L
  Lipid TG: 1.80 ± 0.19 mmol/L
Propyl dialdehyde (MDA); 10 mg/kg
  Measurements about oxidation MDA: 4.39 ± 0.90 nmol/mg pro
Propyl dialdehyde (MDA); 20 mg/kg
  Measurements about oxidation MDA: 3.51 ± 0.46 nmol/mg pro
Propyl dialdehyde (MDA); 150 mg/kg
  Measurements about oxidation MDA: 2.76 ± 0.40 nmol/mg pro
[1]; 10 mg/kg
  Measurements about oxidation SOD: 131.56 ± 23.49 U/mg pro
[1]; 20 mg/kg
  Measurements about oxidation SOD: 170.04 ± 13.49 U/mg pro
[1]; 150 mg/kg
  Measurements about oxidation SOD: 195.10 ± 13.71 U/mg pro

## O=c1c2cc(O)c(O)cc2oc2cc(O)c([C@@H]3O[C@H](CO)[C@@H](O)[C@H](O)[C@H]3O)c(O)c12 [Mangiferin]
Diabetic GK rats; 10 mg/kg
  Improvement of GLU, TC, TG, AR, MDA, SOD in diabetic GK rats: do not significantly improve
  GLU: 20.75 ± 3.39 mmol/L
  Lipid TC: 4.48 ± 1.53 mmol/L
  Lipid TG: 3.62 ± 0.41 mmol/L
Diabetic GK rats; [2]
  Improvement of GLU, TC, TG, AR, MDA, SOD in diabetic GK rats: improves
Diabetic GK rats; 30 mg/kg
  GLU: 13.05 ± 2.23 mmol/L
  Lipid TC: 3.16 ± 0.32 mmol/L
  Lipid TG: 2.82 ± 0.22 mmol/L
Diabetic GK rats; 200 mg/kg
  GLU: 9.05 ± 2.04 mmol/L
  Lipid TC: 3.06 ± 0.29 mmol/L
  Lipid TG: 1.82 ± 0.32 mmol/L
Propyl dialdehyde (MDA); 10 mg/kg
  Measurements about oxidation MDA: 4.41 ± 0.87 nmol/mg pro
Propyl dialdehyde (MDA); 30 mg/kg
  Measurements about oxidation MDA: 3.48 ± 0.47 nmol/mg pro
Propyl dialdehyde (MDA); 200 mg/kg
  Measurements about oxidation MDA: 2.75 ± 0.48 nmol/mg pro
[1]; 10 mg/kg
  Measurements about oxidation SOD: 130.74 ± 23.47 U/mg pro
[1]; 30 mg/kg
  Measurements about oxidation SOD: 168.23 ± 13.46 U/mg pro
[1]; 200 mg/kg
  Measurements about oxidation SOD: 194.15 ± 13.55 U/mg pro
